Assays:
Experiment in all cases: relative viability (nuclei count vs DMSO), 5 days (fraction); higher = more cells survive
R406 + Pemetrexed = compound: COc1cc(Nc2ncc(F)c(Nc3ccc4c(n3)NC(=O)C(C)(C)O4)n2)cc(OC)c1OC [R406] + Nc1nc2[nH]cc(CCc3ccc(C(=O)N[C@@H](CCC(=O)O)C(=O)O)cc3)c2c(=O)[nH]1 [Pemetrexed] (partner 0.2 µM)
How it was run: (§1)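 Lung cancer cell lines in 1536-well plates were dosed by pin tool the day after seeding, either with one drug alone or with a fixed anchor-drug dose plus five library-drug doses (not always all listed) in √10 steps. After 5 days, cells were fixed and their nuclei stained in one step (final 0.05% Triton X-100, 1% formaldehyde, 1 ug/ml Hoechst), then counted on 4× images. Relative viability is the nuclei count in treated wells divided by that in vehicle wells. Values are medians of duplicate plates.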

R406 + Olaparib = compound: COc1cc(Nc2ncc(F)c(Nc3ccc4c(n3)NC(=O)C(C)(C)O4)n2)cc(OC)c1OC [R406] + O=C(c1cc(Cc2n[nH]c(=O)c3ccccc23)ccc1F)N1CCN(C(=O)C2CC2)CC1 [Olaparib] (partner 8 µM)
How it was run: as §1

Daporinad + Pictilisib = compound: O=C(/C=C/c1cccnc1)NCCCCC1CCN(C(=O)c2ccccc2)CC1 [Daporinad] + CS(=O)(=O)N1CCN(Cc2cc3nc(-c4cccc5[nH]ncc45)nc(N4CCOCC4)c3s2)CC1 [Pictilisib] (partner 1 µM)
How it was run: as §1

Daporinad + Vorinostat = compound: O=C(/C=C/c1cccnc1)NCCCCC1CCN(C(=O)c2ccccc2)CC1 [Daporinad] + O=C(CCCCCCC(=O)Nc1ccccc1)NO [Vorinostat] (partner 1 µM)
How it was run: as §1

Cell Line	relative viability (R406 + Pemetrexed; first compound 0.08 µM)	relative viability (R406 + Pemetrexed; first compound 0.253 µM)	relative viability (R406 + Pemetrexed; first compound 0.8 µM)	relative viability (R406 + Pemetrexed; first compound 2.53 µM)	relative viability (R406 + Pemetrexed; first compound 8 µM)	relative viability (R406 + Olaparib; first compound 0.08 µM)	relative viability (R406 + Olaparib; first compound 0.253 µM)	relative viability (R406 + Olaparib; first compound 0.8 µM)	relative viability (R406 + Olaparib; first compound 2.53 µM)	relative viability (R406 + Olaparib; first compound 8 µM)	relative viability (Daporinad + Pictilisib; first compound 0.0005 µM)	relative viability (Daporinad + Pictilisib; first compound 0.001581 µM)	relative viability (Daporinad + Pictilisib; first compound 0.005 µM)	relative viability (Daporinad + Pictilisib; first compound 0.01581 µM)	relative viability (Daporinad + Vorinostat; first compound 0.0005 µM)	relative viability (Daporinad + Vorinostat; first compound 0.001581 µM)	relative viability (Daporinad + Vorinostat; first compound 0.005 µM)	relative viability (Daporinad + Vorinostat; first compound 0.01581 µM)
NCI-H358	0.167	0.17	0.168	0.146	0.145	0.562	0.617	0.632	0.279	0.209	0.266	0.405	0.338	0.438	0.688	0.75	0.801	0.558
NCI-H441	0.219	0.261	0.263	0.257	0.234	0.429	0.693	0.619	0.489	0.322	0.435	0.631	0.588	0.507	0.913	0.677	0.811	0.778
NCI-H460	0.064	0.0593	0.0591	0.0591	0.0556	0.363	0.577	0.441	0.434	0.341	0.332	0.368	0.423	0.535	0.743	0.719	0.687	0.643
NCI-H520	0.698	0.724	0.675	0.285	0.153	0.314	0.34	0.329	0.194	0.126	0.346	0.29	0.29	0.187	0.747	0.284	0.228	0.165
NCI-H596	0.527	0.554	0.428	0.392	0.324	0.626	0.734	0.606	0.641	0.377	0.402	0.371	0.421	0.448	0.582	0.321	0.737	0.4
NCI-H647	0.172	0.178	0.17	0.0932	0.0585	0.423	0.633	0.643	0.231	0.0598	0.403	0.556	0.489	0.53	0.527	0.483	0.534	0.49
NCI-H650	0.912	1.13	0.953	0.779	0.591	0.342	0.42	0.435	0.313	0.301	0.937	0.962	1.02	1.05	0.465	0.488	0.511	0.399
NCI-H661	0.943	0.92	0.86	0.767	0.685	0.731	0.783	0.673	0.697	0.591	0.412	0.376	0.487	0.357	0.766	0.709	0.461	0.568
NCI-H838	0.257	0.268	0.244	0.226	0.136	0.725	0.798	0.908	0.248	0.142	0.507	0.559	0.592	0.53	0.763	0.814	0.49	0.418
NCI-H1355	1.09	1.09	1.09	0.982	0.911	0.675	0.8	0.82	0.569	0.374	0.417	0.549	0.628	0.576	0.652	0.738	0.615	0.532
NCI-H1395	0.865	1.01	0.856	0.865	0.434	0.455	0.475	0.444	0.421	0.362	0.615	0.697	0.574	0.674	0.627	0.795	0.94	0.794
NCI-H1437	0.297	0.316	0.317	0.259	0.203	0.611	0.622	0.647	0.546	0.431	0.418	0.527	0.433	0.553	0.759	0.831	0.893	0.718
NCI-H1650	0.355	0.408	0.37	0.291	0.358	0.911	0.808	0.798	0.787	0.647	0.503	0.727	0.715	0.733	0.518	0.746	0.547	0.322
NCI-H1651	0.475	0.679	0.573	0.548	0.508	0.19	0.193	0.177	0.173	0.172	0.642	0.683	0.629	0.601	0.613	0.594	0.695	0.529
NCI-H1666	0.825	1.05	0.86	0.718	0.674	0.74	0.797	0.725	0.824	0.687	0.508	0.482	0.456	0.494	0.98	1.03	0.956	1.07
NCI-H1734	0.394	0.417	0.453	0.45	0.322	0.641	0.654	0.688	0.542	0.417	0.454	0.529	0.557	0.431	0.837	0.897	0.729	0.301
NCI-H1755	0.474	0.419	0.426	0.385	0.33	0.801	0.88	0.869	0.792	0.502	0.442	0.44	0.452	0.457	0.76	0.934	0.807	0.751
NCI-H1793	0.711	1.09	1.15	0.147	0.157	0.781	0.794	0.946	0.356	0.144	0.221	0.354	0.38	0.32	0.542	0.508	0.809	0.969
NCI-H1915	0.498	0.475	0.497	0.439	0.36	0.286	0.267	0.263	0.237	0.237	0.967	1.15	1.13	0.929	0.52	0.605	0.634	0.462
NCI-H1944	0.617	0.617	0.684	0.571	0.411	0.35	0.382	0.38	0.361	0.328	0.366	0.346	0.389	0.34	0.57	0.524	0.647	0.613
NCI-H1975	0.29	0.322	0.272	0.261	0.175	0.706	0.862	0.783	0.311	0.204	0.267	0.333	0.315	0.304	0.748	0.728	0.813	0.689
NCI-H1993	0.618	0.5	0.678	0.578	0.464	1.14	1.02	1.07	0.992	0.918	0.925	0.684	0.798	0.869	0.766	0.723	0.775	0.88
NCI-H2009	0.969	1.09	1.05	0.979	0.946	0.687	0.706	0.844	0.489	0.546	0.784	1	0.938	0.661	0.745	0.79	0.708	0.347
NCI-H2023	0.216	0.223	0.199	0.19	0.124	0.437	0.49	0.474	0.4	0.163	0.252	0.3	0.245	0.278	0.848	0.667	0.715	0.631
NCI-H2085	0.89	0.902	0.867	0.64	0.589	0.79	0.823	0.788	0.738	0.458	0.438	0.463	0.526	0.554	0.737	–	0.92	0.966
NCI-H2087	0.712	0.733	0.683	0.746	0.679	0.558	0.581	0.739	0.488	0.32	0.877	1.1	0.951	0.907	0.89	0.645	0.576	0.792
NCI-H2126	0.749	0.664	0.722	0.599	0.61	0.933	0.943	0.933	0.855	0.557	0.529	0.516	0.485	0.486	0.862	0.836	0.948	0.91
NCI-H2170	0.194	0.262	0.238	0.24	0.221	0.63	0.573	0.648	0.44	0.488	0.315	0.331	0.301	0.407	0.769	0.81	0.827	0.822
NCI-H2228	0.316	0.332	0.352	0.255	0.0888	0.487	0.731	0.848	0.341	0.238	0.342	0.358	0.495	0.464	0.568	0.606	0.692	0.544
